Data taken from ChEMBL document CHEMBL5030524, “Discovery of Cyclic Peptidomimetic Ligands Targeting the Extracellular Domain of EGFR” (J Med Chem, 2021).
Calls of active or inactive are those of the source. The rule behind the calls is not given here.

Tests used:
[1] = Oral bioavailability in human; assay type: ADME, organism-based; details: in vivo
[2] = Stability of the compound assessed as pronase (unknown origin)-mediated drug degradation measured after 20 hrs by HPLC analysis; assay type: ADME; details: bacteria
[3] = Selectivity ratio of IC50 for HEK293 cells to IC50 for human A549 cells; assay type: toxicity; details: HEK293 cells versus A549 cells, read-out: Ratio IC50
Mus musculus [4] = test: In vivo inhibition of EGFR in athymic nude Ncr/nu mouse xenografted with human A549 cell assessed as reduction in phosphorylated EGFR expression at 50 mg/kg, ip administered every 2 days for 7 times measured after 6 days by immunohistochemical staining based analysis; assay type: functional, organism-based; details: time 6.0 day
A549 [5] = test: Antitumor activity against human A549 cells xenografted in athymic nude Ncr/nu mouse assessed as suppression of tumor growth at 10 mg/kg, ip administered once every 2 days for seven times and measured after 6 day; assay type: functional, organism-based
[6] = target: T1, Epidermal growth factor receptor (Homo sapiens, UniProt P00533); test: Inhibition of […] EGFR phosphorylation in human A549 cells pretreated for 4 hr followed by EGF stimulation by Western blot analysis; assay type: cell-based
[7] = target: T1, Epidermal growth factor receptor; test: Inhibition of EGFR in human A549 cells assessed as reduction in EGF-induced ERK phosphorylation measured after 4 hrs by Western blot analysis; assay type: cell-based
A549 [8] = test: Antiproliferative activity against human serum starved A549 cells assessed as reduction in cell viability after 48 hrs in presence of EGF by CCK8 assay; assay type: functional, cell-based; details: A549, 48 h
HEK293 = test: Cytotoxicity against HEK293 cells assessed as reduction in cell viability after 48 hrs by CCK8 assay; assay type: cell-based; details: Homo sapiens, HEK293, 48 h
[9] = target: T1, Epidermal growth factor receptor; test: Inhibition of […] EGFR phosphorylation in human A549 cells at 25 uM pretreated for 4 hr followed by EGF stimulation by Western blot analysis relative to control; assay type: cell-based
[10] = target: T1, Epidermal growth factor receptor; test: Binding affinity to EGFR (unknown origin) assessed as dissociation constant by fluorescence polarization assay
A549 [11] = test: Antimigratory activity against human A549 cells assessed as inhibition of cell migration at 25 uM measured after 30 hrs by scratch wound healing assay (reference value: 55.3 %); assay type: functional; design: scale not given: the % may be the effect or the level left
A549 [12] = test: Antitumor activity against human A549 cells xenografted in athymic nude Ncr/nu mouse assessed as suppression of tumor growth at 50 mg/kg, ip administered once every 2 days for seven days; assay type: functional, organism-based; details: time 7.0 day
A549 [13] = test: Antiproliferative activity against human serum starved A549 cells assessed as reduction in cell viability at 10 uM after 48 hrs by CCK8 assay relative to control; assay type: functional
Mus musculus [14] = test: In vivo inhibition of EGFR in athymic nude Ncr/nu mouse xenografted with human A549 cell assessed as reduction in phosphorylated ERK expression at 50 mg/kg, ip administered every 2 days for 7 times measured after 6 days by immunohistochemical staining based analysis; assay type: functional, organism-based; details: time 6.0 day
[15] = Toxicity in athymic nude Ncr/nu mouse xenografted with human A549 cells assessed as effect on weight gain at 10 to 50 mg/kg, ip; assay type: organism-based; details: in vivo, 144 h, dose 10-50 mg/kg, time 6 day
[16] = target: T1, Epidermal growth factor receptor; test: Inhibition of EGFR in human A549 cells assessed as reduction in EGF-induced Akt phosphorylation measured after 4 hrs by Western blot analysis; assay type: cell-based
A549 [17] = test: Antimigratory activity against human A549 cells assessed as inhibition of cell migration at 25 uM in presence of EGF by scratch wound healing assay (reference value: 133.9 %); assay type: functional; design: scale not given: the % may be the effect or the level left

T1 sequence (P00533 whole entry): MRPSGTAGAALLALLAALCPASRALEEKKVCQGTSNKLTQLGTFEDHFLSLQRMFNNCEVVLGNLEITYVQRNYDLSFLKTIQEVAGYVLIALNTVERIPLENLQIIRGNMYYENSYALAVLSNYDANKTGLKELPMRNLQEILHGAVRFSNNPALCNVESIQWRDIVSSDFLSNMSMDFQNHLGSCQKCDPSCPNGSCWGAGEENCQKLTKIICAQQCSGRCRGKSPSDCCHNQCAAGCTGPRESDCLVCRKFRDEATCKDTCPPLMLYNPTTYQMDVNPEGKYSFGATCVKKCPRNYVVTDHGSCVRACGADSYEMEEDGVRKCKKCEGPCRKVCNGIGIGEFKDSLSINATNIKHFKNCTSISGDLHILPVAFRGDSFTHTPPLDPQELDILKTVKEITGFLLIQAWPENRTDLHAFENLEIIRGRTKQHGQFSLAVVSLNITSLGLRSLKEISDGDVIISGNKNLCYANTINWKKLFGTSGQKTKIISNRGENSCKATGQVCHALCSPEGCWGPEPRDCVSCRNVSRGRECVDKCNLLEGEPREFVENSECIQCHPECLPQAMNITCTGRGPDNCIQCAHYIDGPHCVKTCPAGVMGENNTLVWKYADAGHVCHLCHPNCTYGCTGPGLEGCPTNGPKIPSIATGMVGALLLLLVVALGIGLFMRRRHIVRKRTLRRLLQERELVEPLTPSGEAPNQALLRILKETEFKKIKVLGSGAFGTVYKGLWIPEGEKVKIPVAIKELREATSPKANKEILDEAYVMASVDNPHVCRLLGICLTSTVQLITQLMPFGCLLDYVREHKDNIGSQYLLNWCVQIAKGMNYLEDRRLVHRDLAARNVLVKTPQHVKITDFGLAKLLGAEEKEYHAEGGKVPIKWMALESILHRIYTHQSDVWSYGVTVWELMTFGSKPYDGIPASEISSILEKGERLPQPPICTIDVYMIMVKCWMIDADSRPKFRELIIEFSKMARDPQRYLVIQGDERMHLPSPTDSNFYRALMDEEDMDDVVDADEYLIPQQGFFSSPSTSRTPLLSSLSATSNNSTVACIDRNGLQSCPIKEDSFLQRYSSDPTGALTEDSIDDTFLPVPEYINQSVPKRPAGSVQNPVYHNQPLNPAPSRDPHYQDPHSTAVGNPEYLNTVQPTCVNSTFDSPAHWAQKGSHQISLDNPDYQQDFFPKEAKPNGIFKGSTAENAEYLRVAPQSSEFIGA

bioavailability [1] [%]	Drug degradation [2]	IC50 [6] [µM]	inhibition [7]	IC50 (A549 [8]) [µM]	inhibition [9] [%]	inhibition [16]	SMILES	selectivity ratio [3]	inhibition (Mus musculus [4])	Activity (A549 [5])	IC50 (HEK293) [µM]	Kd [10] [µM]	Activity (A549 [11]) [%]	Activity (A549 [12])	Activity (A549 [13]) [%]	inhibition (Mus musculus [14])	Activity [15]	Activity (A549 [17]) [%]
> 90							NC(=O)N1c2ccccc2C=Cc2ccccc21 [CARBAMAZEPINE]											
	Stable	17.7	Dose-Dependent Effect	8.36	100	Dose-Dependent Effect	COc1cc(CC(=O)N2CC(=O)N[C@@H](Cc3ccccc3)C(=O)N(CC(N)=O)C(=O)CCSCc3ccc(cc3)C(=O)N[C@@H](CCCCN)CN(C(=O)CCC3CCCCC3)CC(=O)N[C@@H](Cc3ccccc3)CN(C(=O)CCc3ccccc3)CC(=O)N[C@@H](Cc3ccccc3)C2)cc(OC)c1	8	Active	inactive	62.1	0.43	15.2	Active	100	inactive	Non-Toxic	64.8
							CC(C)C[C@H]1CN(C(=O)Cc2ccc3c(c2)OCO3)CC(=O)N[C@@H](Cc2ccccc2)CN(C(=O)CCC2CCCCC2)CC(=O)N[C@@H](Cc2ccccc2)CN(C(=O)Cc2ccc3c(c2)OCO3)CC(=O)N[C@@H](CC(C)C)C(=O)N(CC(N)=O)C(=O)CCSCc2ccc(cc2)C(=O)N1					0.55						
